Laboratory results published in US20130116263A1, “PAK INHIBITORS FOR THE TREATMENT OF CELL PROLIFERATIVE DISORDERS” (AFRAXIS, INC., priority 2011, published 2013).

Legend:
Assay type in all cases: biochemical
PAK1 = PAK1 (Homo sapiens, UniProt Q13153); assay: In vitro PAK inhibition assay (Z'-LYTE, SelectScreen), PAK1; details: read-out: PAK1 IC50
Experimental: (§1) Compounds are screened in 1% DMSO (final) in the well. For 10 point titrations, 3-fold serial dilutions are conducted. All Peptide/Kinase Mixtures are diluted to a 2× working concentration in the appropriate Kinase Buffer
The 2×PAK1/Ser/Thr 19 mixture is prepared in 50 mM HEPES pH 7.5, 0.01% BRIJ-35, 10 mM MgCl2, 1 mM EGTA.
(§2) 1. Add the following solutions to a well in a 384-well plate: • 2.5 μL of 4× Test Compound OR (100 nL 100× Test Compound plus 2.4 μL kinase buffer) • 5 μL of 2× Peptide/Kinase (PAK) Mixture • 2.5 μL of 4×ATP Solution
(§3) 3. Incubate the PAK Kinase Reaction at room temperature for 60-minutes
(§4) 4. Add 5 μL of Development Reagent Solution to each well
(§5) 6. Incubate the Development Reaction for 60-minutes
(§6) 7. Determine the fluorescence using a fluorescence plate reader
(§7) SelectScreen® Kinase Profiling Service uses XLfit from IDBS.
(§8) The representative IC50 value with a known inhibitor for each kinase was determined at the ATP bin nearest to the ATP Km app.

PAK2 (PAK65) = PAK2 (PAK65) (Homo sapiens, UniProt Q13177); assay: In vitro PAK inhibition assay (Z'-LYTE, SelectScreen), PAK2; details: read-out: PAK2 IC50
Experimental: as §1
The 2×PAK2 (PAK65)/Ser/Thr 20 mixture is prepared in 50 mM HEPES pH 7.5, 0.01% BRIJ-35, 10 mM MgCl2, 1 mM EGTA. The final 10 μL Kinase Reaction consists of 0.29-6 ng PAK2 (PAK65) and 2 μM Ser/Thr 20 in 50 mM HEPES pH 7.5, 0.01% BRIJ-35, 10 mM MgCl2, 1 mM EGTA.
as §2, §3, §4, §5, §6, §7, §8

PAK3 = PAK3 (Homo sapiens, UniProt O75914); assay: In vitro PAK inhibition assay (Z'-LYTE, SelectScreen), PAK3; details: read-out: PAK3 IC50
Experimental: as §1
The 2×PAK3/Ser/Thr 20 mixture is prepared in 50 mM HEPES pH 7.5, 0.01% BRIJ-35, 10 mM MgCl2, 1 mM EGTA.
as §2, §3, §4, §5, §6, §7, §8

PAK4 = PAK4 (Homo sapiens, UniProt O96013); assay: In vitro PAK inhibition assay (Z'-LYTE, SelectScreen), PAK4
Experimental: as §1
The 2×PAK-4/Ser/Thr 20 mixture is prepared in 50 mM HEPES pH 7.5, 0.01% BRIJ-35, 10 mM MgCl2, 1 mM EGTA. The final 10 μL Kinase Reaction consists of 0.1-0.75 ng PAK-4 and 2 μM Ser/Thr 20 in 50 mM HEPES pH 7.5, 0.01% BRIJ-35, 10 mM MgCl2, 1 mM EGTA. After the 1 hour Kinase Reaction incubation, 5 μL of a 1:256 dilution of Development Reagent A is added.
as §2, §3, §4, §5, §6
SelectScreen® Kinase Profiling Service uses XLfit from IDBS. The dose response curve is curve fit to model number 205 (sigmoidal dose-response model).
The table below provides specifications and data around each kinase. The representative IC50 value with a known inhibitor for each kinase was determined at the ATP bin nearest to the ATP Km app.

Sequence of PAK4 (O96013 whole entry): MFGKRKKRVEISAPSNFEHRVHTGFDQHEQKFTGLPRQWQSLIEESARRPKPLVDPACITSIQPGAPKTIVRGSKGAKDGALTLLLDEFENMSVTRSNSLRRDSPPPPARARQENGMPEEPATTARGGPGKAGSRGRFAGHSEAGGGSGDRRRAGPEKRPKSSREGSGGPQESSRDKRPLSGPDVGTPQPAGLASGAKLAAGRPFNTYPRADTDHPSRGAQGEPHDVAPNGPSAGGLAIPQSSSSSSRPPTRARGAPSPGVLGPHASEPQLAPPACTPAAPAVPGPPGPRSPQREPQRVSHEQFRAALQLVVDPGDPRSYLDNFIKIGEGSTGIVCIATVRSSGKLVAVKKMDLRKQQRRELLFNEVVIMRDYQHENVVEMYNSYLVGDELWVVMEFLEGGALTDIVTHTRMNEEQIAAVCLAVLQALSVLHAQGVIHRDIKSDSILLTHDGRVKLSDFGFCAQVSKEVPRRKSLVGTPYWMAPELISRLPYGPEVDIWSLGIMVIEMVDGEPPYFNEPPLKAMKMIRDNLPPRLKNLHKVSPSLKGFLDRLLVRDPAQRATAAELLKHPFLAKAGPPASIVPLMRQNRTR
Sequence of PAK3 (O75914 1-544 isoform O75914-2): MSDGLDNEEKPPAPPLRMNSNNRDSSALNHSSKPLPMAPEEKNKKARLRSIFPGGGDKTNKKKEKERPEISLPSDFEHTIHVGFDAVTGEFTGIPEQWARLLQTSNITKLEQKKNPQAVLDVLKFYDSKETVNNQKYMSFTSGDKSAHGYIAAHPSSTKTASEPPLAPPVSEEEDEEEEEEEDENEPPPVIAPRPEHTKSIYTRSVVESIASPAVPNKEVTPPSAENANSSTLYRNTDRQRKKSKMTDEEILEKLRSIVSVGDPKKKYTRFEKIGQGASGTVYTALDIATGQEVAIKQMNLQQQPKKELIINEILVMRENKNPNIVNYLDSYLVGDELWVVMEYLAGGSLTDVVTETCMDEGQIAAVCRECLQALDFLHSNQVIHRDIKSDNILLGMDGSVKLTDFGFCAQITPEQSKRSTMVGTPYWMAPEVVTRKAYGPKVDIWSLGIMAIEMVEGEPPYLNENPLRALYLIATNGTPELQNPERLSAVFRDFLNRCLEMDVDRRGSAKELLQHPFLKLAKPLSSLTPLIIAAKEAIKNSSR
Sequence of PAK1 (Q13153 whole entry): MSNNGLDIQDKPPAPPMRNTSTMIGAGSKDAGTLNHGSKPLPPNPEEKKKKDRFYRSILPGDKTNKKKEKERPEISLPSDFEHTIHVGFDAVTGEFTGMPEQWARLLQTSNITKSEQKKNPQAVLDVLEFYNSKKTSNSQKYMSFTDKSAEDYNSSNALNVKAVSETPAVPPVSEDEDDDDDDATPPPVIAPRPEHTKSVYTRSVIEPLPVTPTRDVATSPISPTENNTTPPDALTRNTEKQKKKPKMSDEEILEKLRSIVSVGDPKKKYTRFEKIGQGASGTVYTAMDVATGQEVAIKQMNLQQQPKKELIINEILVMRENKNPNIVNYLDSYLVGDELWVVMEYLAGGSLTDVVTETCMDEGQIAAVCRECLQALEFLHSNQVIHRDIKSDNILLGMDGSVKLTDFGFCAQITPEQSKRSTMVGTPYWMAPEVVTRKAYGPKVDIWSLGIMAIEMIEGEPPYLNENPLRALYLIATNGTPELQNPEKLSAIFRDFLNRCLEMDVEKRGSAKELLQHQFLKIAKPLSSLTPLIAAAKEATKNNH
Sequence of PAK2 (PAK65) (Q13177 whole entry): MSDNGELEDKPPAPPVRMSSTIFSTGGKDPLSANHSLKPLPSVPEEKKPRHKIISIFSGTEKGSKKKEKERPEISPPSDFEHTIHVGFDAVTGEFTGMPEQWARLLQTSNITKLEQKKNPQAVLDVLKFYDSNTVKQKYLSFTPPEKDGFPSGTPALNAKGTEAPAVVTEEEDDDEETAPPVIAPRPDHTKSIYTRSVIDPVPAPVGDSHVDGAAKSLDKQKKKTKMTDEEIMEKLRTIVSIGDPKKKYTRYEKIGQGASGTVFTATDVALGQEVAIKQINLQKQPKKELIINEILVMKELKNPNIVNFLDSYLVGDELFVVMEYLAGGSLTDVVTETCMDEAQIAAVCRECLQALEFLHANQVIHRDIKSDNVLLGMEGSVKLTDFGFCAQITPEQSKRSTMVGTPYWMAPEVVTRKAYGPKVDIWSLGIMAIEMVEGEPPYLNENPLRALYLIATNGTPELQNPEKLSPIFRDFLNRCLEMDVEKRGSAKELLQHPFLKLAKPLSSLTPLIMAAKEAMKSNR

| SMILES | IC50 (PAK1) | IC50 (PAK2 (PAK65)) | IC50 (PAK3) | IC50 (PAK4) |
| --- | --- | --- | --- | --- |
| Cc1cncc(-c2ccc(-c3cc4cnc(NC5CCOCC5)nc4n(Cc4ccccc4C(F)(F)F)c3=O)c(Cl)c2)n1 [Example 20] | 50 to 500 nM | < 50 nM | 50 to 500 nM | > 5000 nM |
| Cc1cncc(-c2ccc(-c3cc4cnc(NC5CCOCC5)nc4n(C4CCCC4)c3=O)c(Cl)c2)n1 [Example 89] | 50 to 500 nM | 50 to 500 nM | 50 to 500 nM | > 5000 nM |
| CCn1c(=O)c(-c2ccc(-c3nccnc3C)cc2Cl)cc2cnc(NC3CCCNC3)nc21 (centres unmarked) [Example 82] | 50 to 500 nM | 50 to 500 nM | 500 to 5000 nM | > 5000 nM |
| CCn1c(=O)c(-c2cc(C)c(-c3cncc(C)n3)cc2Cl)cc2cnc(N[C@H]3CCOC3)nc21 [Example 72] | < 50 nM | < 50 nM | 50 to 500 nM | > 5000 nM |
| CCn1c(=O)c(-c2ccc(-c3ccnnc3)cc2Cl)cc2cnc(N[C@@H]3CCOC3)nc21 [Example 62] | > 5000 nM | > 5000 nM | > 5000 nM | > 5000 nM |
| Cc1nccnc1-c1ccc(-c2cc3cnc(N[C@@H]4CCOC4)nc3n(Cc3cccnc3)c2=O)c(Cl)c1 [Example 122, (R)-6-(2-chloro-4-(3-methylpyrazin-2-yl)phenyl)-8-(pyridin-3-ylmethyl)-2-((tetrahydrofuran-3-yl)amino)pyrido[2,3-d]pyrimidin-7(8H)-one] | 50 to 500 nM | < 50 nM | 50 to 500 nM | > 5000 nM |
| Cc1cncc(-c2ccc(-c3cc4cnc(N[C@H]5CCOC5)nc4n(C4CCN(C)CC4)c3=O)c(Cl)c2)n1 [Example 108] | 50 to 500 nM | 50 to 500 nM | 50 to 500 nM | > 5000 nM |
| Cc1cncc(-c2ccc(-c3cc4cnc(N[C@@H]5CCOC5)nc4n(C4CCN(C)CC4)c3=O)c(Cl)c2)n1 [Example 107] | 50 to 500 nM | 50 to 500 nM | 500 to 5000 nM | > 5000 nM |
| CCn1c(=O)c(-c2ccc(-c3cncc(C)n3)cc2Cl)cc2cnc(NC3CNC(=O)C3)nc21 (centres unmarked) [Example 66] | 50 to 500 nM | < 50 nM | 50 to 500 nM | > 5000 nM |
| CCn1c(=O)c(-c2ccc(-c3nccnc3C)cc2Cl)cc2cnc(NC3CCOC3)nc21 (centres unmarked) [Example 15] | 50 to 500 nM | 50 to 500 nM | 50 to 500 nM | > 5000 nM |
| CCn1c(=O)c(-c2ccc(-c3nccnc3C)cc2Cl)cc2cnc(NC3CCNC(=O)C3)nc21 (centres unmarked) [Example 33] | 50 to 500 nM | < 50 nM | 50 to 500 nM | > 5000 nM |
| Cc1cnc(-c2ccc(-c3cc4cnc(NC5CCOCC5)nc4[nH]c3=O)c(Cl)c2)s1 [Example 14] | > 5000 nM | > 5000 nM | 50 to 500 nM | > 5000 nM |
| CCN(CC)CCn1c(=O)c(-c2ccc(-c3cncc(C)n3)cc2Cl)cc2cnc(N[C@@H]3CCOC3)nc21 [Example 96] | 50 to 500 nM | 50 to 500 nM | 500 to 5000 nM | > 5000 nM |
| CCn1c(=O)c(-c2ccc(-c3cccnc3C)cc2Cl)cc2cnc(N[C@@H]3CCOC3)nc21 [Example 59] | 500 to 5000 nM | 500 to 5000 nM | 500 to 5000 nM | > 5000 nM |
| CCn1c(=O)c(-c2ccc(-c3cncc(C)n3)cc2Cl)cc2cnc(NCC3CCC(N(C)C)CC3)nc21 (centres unmarked) [Example 132] | 50 to 500 nM | 50 to 500 nM | 50 to 500 nM | > 5000 nM |
| CCn1c(=O)c(-c2ccc(-c3cncc(C)n3)cc2Cl)cc2cnc(N[C@@H]3CCOC3)nc21 [Example 28] | < 50 nM | < 50 nM | 50 to 500 nM | > 5000 nM |
| Cc1cncc(-c2ccc(-c3cc4cnc(NC5CCOCC5)nc4n(Cc4ccccc4Cl)c3=O)c(Cl)c2)n1 [Example 42] | < 50 nM | 50 to 500 nM | 50 to 500 nM | > 5000 nM |
